Measurements from patent US20260216142A1, “USES OF ZLN-005 AND RELATED COMPOUNDS” (priority 2022, published 2026).

How the values were obtained:
naïve THP-1 = test: Expression over time in naïve THP-1; assay type: cell-based, human
CLP sepsis model = test: Echocardiographic measurement at 24 hours post-CLP; assay type: in vivo, mice; conditions: 24 hours after CLP
Experimental: Chest hair was removed with cream one day before echocardiography was performed using VisualSonics Vevo®@2100 equipped with an 18- to 38-MHz probe (VisualSonics, Toronto, ON, Canada). Mice were anesthetized by inhalation of isoflurane at 24 hours post-CLP. The left ventricle was assessed in the parasternal short-axis view. Left ventricular end-systole or end-diastole was defined as the period when the left ventricular lumen was shortest or most dilated, respectively. Diastolic left ventricular (LV) internal diameters, systolic LV internal diameters, diastolic LV anterior wall, and diastolic LV posterior wall were measured from the LV M-mode tracing at the papillary muscle level. LV wall thickness was calculated as the average of anterior and posterior wall thicknesses.

[1] = system: cecal ligation and perforation (CLP) model; test: CLP model of sepsis: survival and behavior; assay type: in vivo, C57BL/6 mice; conditions: 12 mg/kg i.p. daily Day 0 to Day 2
Experimental: Cecal ligation and perforation was performed on C57BL/6 mice about 10 to 20 weeks of age. Mice were administered either ZLN-005 at 12 mg/kg (i.p.) or vehicle (DMSO) at the time of cecal ligation and perforation, 24 hours later, and 48 hours later (FIG. 1A).
C57BL/6 mice were purchased from Shimizu Laboratory Supplies Co., Ltd. (Kyoto, Japan). Mice were housed in specific-pathogen-free conditions with free access to food and water. Mice were anesthetized by inhalation of isoflurane (099-06571, FUJIFILM Wako Pure Chemical Corporation, Tokyo, Japan). A midline incision was made, followed by externalization, and the cecum was then ligated at half the distance between the distal pole and the base of the cecum and punctured with a 21-gauge needle (NN-2116R, Terumo Corporation, Tokyo, Japan). Next, a small amount of fecal mass from the punctured cecum was gently squeezed out to ensure patency of punctures, the cecum was relocated, and 6/0 Ethicon PROLENE Suture (Ethicon, Inc., Raritan, NJ, USA) was used to close the peritoneum and skin. Sham-operated mice underwent only incision and cecum exteriorization. […]
The results are presented as the means±standard deviations. The statistical significance of differences among groups was evaluated using parametric unpaired t tests for bar graphs. […]

THP-1 cells = test: Autophagy flux (LC3 conversion, Western blotting) in LPS model of THP-1; assay type: cell-based, human; conditions: 6 hours LPS followed by 2 or 6 hours autophagy inhibitor (50 nM bafilomycin A1 or 30 nM chloroquine)
Experimental: Cells were incubated at 37° C. in a humidified 5% CO2 incubator. […] After 48 hours, the supernatant of the medium was carefully removed to avoid detaching the cells attached to the bottom of the plate and replaced with new medium containing 1 μM ZLN-005 or DMSO (0.1%) as a control. […] For PI3K inhibition, the cells were seeded in the plate and added 200 nM Wortmannin (AG-CN2-0023-M001, Adipogen Life Sciences Inc.).
Protein levels were quantified using ImageJ™.

SMILES	increase in expression at the protein level (naïve THP-1; naïve THP-1, 36 hours (data not shown))	increase in expression at the mRNA level (naïve THP-1; naïve THP-1, 48 hours (data not shown))	ejection fraction (CLP sepsis model)	mice alive at 72 hours ([1]; 72 hours post-CLP)	mice alive after 6 days ([1]; 6 days post-CLP)	LC3-II and LC3-II/I ratios (THP-1 cells)
CC(C)(C)c1ccc(-c2nc3ccccc3[nH]2)cc1 [ZLN-005, 2-(4-tert-butylphenyl)-1H-benzimidazole]	2 fold	2 fold	~50%	40%	30%	–
CO/C1=C\C(C)=C\[C@@H](C)[C@@H](O)[C@@H](C)C/C(C)=C/C=C/[C@H](OC)[C@@H]([C@@H](C)[C@@H](O)[C@H](C)[C@@]2(O)C[C@@H](O)[C@H](C)[C@@H](C(C)C)O2)OC1=O [bafilomycin A1]	–	–	–	–	–	increasing with significant differences
